Results taken from paper PMC8237267 (Journal of Medicinal Chemistry, 2021).
“Also recorded” adds a separate entry of the source.

Legend:
[1] = target: T1, HDAC1 (Homo sapiens, UniProt Q13547); assay: HDAC EMSA activity assay (Nanosyn); format: biochemical
T1 construct: The full-length human HDACs were recombinantly expressed and purified from SF9 insect cells; host or cells: SF9 insect cells
Protocol: (§1) The full-length human HDACs were recombinantly expressed and purified from SF9 insect cells. All compounds were serially prediluted in DMSO from a top concentration of 10 or 1 μM and introduced into the 384-well plates through an acoustic dispenser (Labcyte550) into the reaction buffer (100 mM HEPES, pH 7.5, 25 mM KCl, 0.1% BSA, 0.01% Triton X-100, and enzyme). The total concentration of DMSO was 1% in all wells. The deacetylation reaction was initiated by introduction of a FAM-labeled acetylated peptide substrate. The reaction was monitored through the change in the relative fluorescence intensity of the substrate and product peaks. The activity was determined as the product sum ratio (PSR): P/(S + P), where P = product peak height and S = substrate peak height. […] Inhibition curves (Pinh vs inhibitor concentration) were fitted by a four-parameter sigmoid dose–response model using XLfit software (IDBS) to determine the IC50 values.

[2] = target: T2, HDAC10 (Homo sapiens, UniProt Q969S8); assay: HDAC EMSA activity assay (Nanosyn); format: biochemical
T2 construct: The full-length human HDACs were recombinantly expressed and purified from SF9 insect cells; host or cells: SF9 insect cells
T2 sequence (Q969S8 whole entry): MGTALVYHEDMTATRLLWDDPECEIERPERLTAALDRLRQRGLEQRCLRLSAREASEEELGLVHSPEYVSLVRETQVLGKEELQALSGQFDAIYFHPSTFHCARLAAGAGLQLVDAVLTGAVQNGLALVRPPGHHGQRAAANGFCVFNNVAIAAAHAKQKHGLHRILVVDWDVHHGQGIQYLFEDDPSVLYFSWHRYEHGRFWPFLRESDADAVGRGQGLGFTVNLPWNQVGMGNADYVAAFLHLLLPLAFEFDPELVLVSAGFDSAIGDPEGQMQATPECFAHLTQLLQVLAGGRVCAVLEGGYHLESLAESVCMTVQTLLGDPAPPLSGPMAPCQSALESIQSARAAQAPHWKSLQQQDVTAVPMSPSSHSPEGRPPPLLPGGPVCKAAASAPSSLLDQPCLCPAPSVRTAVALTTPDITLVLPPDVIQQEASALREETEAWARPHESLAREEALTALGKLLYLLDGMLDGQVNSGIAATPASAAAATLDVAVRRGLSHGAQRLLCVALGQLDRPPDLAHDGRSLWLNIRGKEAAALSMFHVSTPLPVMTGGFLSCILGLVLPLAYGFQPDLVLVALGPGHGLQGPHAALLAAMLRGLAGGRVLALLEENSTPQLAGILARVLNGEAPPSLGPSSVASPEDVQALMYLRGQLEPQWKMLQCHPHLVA
Protocol: as §1

[3] = target: T3, HDAC5 (Homo sapiens, UniProt Q9UQL6); assay: HDAC EMSA activity assay (Nanosyn); format: biochemical
T3 construct: The full-length human HDACs were recombinantly expressed and purified from SF9 insect cells; host or cells: SF9 insect cells
T3 sequence (Q9UQL6 whole entry): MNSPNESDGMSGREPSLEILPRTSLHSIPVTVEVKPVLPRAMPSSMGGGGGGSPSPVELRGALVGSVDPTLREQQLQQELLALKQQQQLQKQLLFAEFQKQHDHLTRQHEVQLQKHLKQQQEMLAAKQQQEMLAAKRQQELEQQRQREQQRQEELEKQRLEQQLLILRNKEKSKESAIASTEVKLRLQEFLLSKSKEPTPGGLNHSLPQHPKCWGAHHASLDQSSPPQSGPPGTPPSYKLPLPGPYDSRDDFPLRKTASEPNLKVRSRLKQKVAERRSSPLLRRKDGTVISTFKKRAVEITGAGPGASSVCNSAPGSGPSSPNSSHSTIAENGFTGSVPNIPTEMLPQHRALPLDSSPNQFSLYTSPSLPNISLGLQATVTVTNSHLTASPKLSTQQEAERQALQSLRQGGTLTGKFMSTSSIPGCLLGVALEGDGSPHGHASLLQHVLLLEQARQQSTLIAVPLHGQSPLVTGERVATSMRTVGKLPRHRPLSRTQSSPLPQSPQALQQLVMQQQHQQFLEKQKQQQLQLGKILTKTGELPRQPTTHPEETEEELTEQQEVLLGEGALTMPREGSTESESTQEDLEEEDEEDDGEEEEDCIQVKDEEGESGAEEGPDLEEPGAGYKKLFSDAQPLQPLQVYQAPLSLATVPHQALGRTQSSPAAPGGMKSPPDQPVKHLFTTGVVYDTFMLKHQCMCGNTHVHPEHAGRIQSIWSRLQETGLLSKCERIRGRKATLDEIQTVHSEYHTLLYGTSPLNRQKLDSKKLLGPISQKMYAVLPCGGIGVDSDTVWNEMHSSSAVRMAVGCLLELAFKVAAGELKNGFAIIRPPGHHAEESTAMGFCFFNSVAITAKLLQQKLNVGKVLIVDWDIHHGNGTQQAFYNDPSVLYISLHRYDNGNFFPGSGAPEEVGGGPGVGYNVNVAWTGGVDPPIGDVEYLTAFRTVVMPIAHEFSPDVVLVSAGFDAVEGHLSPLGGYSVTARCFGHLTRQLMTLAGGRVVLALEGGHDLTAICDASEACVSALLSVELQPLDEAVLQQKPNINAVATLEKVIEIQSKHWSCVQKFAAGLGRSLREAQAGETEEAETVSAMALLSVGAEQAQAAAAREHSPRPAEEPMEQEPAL
Protocol: as §1

[4] = target: T4, HDAC7 (Homo sapiens, UniProt Q8WUI4); assay: HDAC EMSA activity assay (Nanosyn); format: biochemical
T4 construct: The full-length human HDACs were recombinantly expressed and purified from SF9 insect cells; host or cells: SF9 insect cells
T4 sequence (Q8WUI4 whole entry): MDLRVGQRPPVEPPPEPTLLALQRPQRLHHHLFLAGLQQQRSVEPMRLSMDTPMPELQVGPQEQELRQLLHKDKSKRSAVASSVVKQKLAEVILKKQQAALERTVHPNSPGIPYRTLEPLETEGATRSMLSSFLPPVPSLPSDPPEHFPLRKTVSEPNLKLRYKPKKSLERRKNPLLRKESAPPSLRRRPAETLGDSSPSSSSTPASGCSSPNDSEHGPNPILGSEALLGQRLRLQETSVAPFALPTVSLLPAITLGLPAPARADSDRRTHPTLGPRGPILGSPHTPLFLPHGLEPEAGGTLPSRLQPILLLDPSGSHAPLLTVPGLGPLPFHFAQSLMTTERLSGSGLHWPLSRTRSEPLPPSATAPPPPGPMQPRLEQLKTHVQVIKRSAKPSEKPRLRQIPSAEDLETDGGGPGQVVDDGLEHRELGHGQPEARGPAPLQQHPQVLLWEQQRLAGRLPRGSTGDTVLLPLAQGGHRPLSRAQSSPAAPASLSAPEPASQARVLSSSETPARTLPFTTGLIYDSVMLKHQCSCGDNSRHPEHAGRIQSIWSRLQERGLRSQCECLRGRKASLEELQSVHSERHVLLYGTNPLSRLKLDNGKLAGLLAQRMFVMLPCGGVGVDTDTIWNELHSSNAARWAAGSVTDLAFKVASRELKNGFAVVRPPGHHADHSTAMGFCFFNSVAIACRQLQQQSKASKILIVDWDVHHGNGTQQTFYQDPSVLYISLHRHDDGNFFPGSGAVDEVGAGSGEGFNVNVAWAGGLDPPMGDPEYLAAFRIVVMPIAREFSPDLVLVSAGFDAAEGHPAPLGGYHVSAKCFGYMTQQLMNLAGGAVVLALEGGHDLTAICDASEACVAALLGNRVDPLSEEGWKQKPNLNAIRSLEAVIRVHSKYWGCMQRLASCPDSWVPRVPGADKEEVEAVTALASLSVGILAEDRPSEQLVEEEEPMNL
Protocol: as §1

[5] = target: T5, HDAC9 (Homo sapiens, UniProt Q9UKV0); assay: HDAC EMSA activity assay (Nanosyn); format: biochemical
T5 construct: The full-length human HDACs were recombinantly expressed and purified from SF9 insect cells; host or cells: SF9 insect cells
T5 sequence (Q9UKV0 whole entry): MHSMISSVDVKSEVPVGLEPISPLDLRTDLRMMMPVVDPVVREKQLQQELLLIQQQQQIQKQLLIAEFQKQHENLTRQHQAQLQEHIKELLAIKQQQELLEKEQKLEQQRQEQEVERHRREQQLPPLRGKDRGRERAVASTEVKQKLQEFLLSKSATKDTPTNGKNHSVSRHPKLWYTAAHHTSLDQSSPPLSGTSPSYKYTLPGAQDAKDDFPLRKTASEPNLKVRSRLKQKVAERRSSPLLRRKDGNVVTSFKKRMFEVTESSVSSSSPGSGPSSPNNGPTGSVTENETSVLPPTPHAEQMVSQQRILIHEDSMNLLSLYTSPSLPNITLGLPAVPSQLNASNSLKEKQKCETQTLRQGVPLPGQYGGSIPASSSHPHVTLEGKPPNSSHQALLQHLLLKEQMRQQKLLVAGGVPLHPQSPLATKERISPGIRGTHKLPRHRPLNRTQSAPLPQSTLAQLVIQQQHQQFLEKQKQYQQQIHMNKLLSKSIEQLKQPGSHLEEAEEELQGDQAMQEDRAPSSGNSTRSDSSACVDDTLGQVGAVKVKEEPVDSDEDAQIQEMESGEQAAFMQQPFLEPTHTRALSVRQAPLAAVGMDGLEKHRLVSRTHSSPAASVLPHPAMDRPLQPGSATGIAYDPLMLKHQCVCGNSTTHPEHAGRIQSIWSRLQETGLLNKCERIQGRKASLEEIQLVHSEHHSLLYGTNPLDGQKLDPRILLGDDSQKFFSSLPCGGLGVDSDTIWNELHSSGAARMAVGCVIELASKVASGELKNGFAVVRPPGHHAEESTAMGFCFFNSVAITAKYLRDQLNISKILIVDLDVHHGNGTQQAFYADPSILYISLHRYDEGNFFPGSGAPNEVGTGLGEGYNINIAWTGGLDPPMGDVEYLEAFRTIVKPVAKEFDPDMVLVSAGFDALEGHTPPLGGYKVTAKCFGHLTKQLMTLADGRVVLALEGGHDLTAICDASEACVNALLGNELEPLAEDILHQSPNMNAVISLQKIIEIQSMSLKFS
Protocol: as §1

[6] = Glutathione stability / reactivity assay; format: in vitro ADME; details: GSH adduct formation by LC/MS/MS; KT-531 up to 24 h
Protocol: Although covalent modification of HDAC6 was not observed (Figure S2), the PFBS group is susceptible to nucleophilic aromatic substitution by biological nucleophiles. A previously described high-throughput in vitro glutathione-reactivity assay was conducted, where compounds were incubated in the presence of glutathione (GSH) and the formation of a GSH-compound adduct was monitored over time via LC/MS/MS.[50]
Compound was added to PBS and 5 mM GSH to reach a final concentration of 5 μM. […] Samples were vortexed and centrifuged for 45 min at 3220g. Aliquots were diluted by ultrapure water, and used for LC/MS/MS analysis. Peak area ratios were determined and percent compounds remaining was calculated by the following equation: [drawing 1] where peak area ratio (t min) is the peak area ratio of control and test compounds at t min; peak area ratio0min is the peak area ratio of control and test compounds at the zero time point. In vitro half-life (t1/2) = −(0.693/k).

[7] = Permeability by lipid-PAMPA; format: in vitro ADME; details: lecithin/dodecane, PBS pH 7.4, 16 h
Protocol: A 1.8% solution (w/v) of lecithin in dodecane was added to each acceptor plate well (top), followed by application of the artificial membrane and addition of 300 μL of PBS (pH 7.4) solution to each well of the acceptor plate. Compounds were added to the donor plate and incubated at 25 °C, 60 rpm for 16 h. After incubation, aliquots of 50 μL from each acceptor well and donor plate were transferred into a 96-well plate, vortexed at 750 rpm for 100 s and centrifuged at 3220g for 20 min. Compound concentrations and effective permeability (Pe) were determined by LC/MS/MS.

[8] = target: T6, HDAC6 (Homo sapiens, UniProt Q9UBN7); assay: Determination of Ki (Kon kinetics); format: biochemical; details: time-dependent inhibition Kon experiment
T6 sequence (Q9UBN7 1-1215): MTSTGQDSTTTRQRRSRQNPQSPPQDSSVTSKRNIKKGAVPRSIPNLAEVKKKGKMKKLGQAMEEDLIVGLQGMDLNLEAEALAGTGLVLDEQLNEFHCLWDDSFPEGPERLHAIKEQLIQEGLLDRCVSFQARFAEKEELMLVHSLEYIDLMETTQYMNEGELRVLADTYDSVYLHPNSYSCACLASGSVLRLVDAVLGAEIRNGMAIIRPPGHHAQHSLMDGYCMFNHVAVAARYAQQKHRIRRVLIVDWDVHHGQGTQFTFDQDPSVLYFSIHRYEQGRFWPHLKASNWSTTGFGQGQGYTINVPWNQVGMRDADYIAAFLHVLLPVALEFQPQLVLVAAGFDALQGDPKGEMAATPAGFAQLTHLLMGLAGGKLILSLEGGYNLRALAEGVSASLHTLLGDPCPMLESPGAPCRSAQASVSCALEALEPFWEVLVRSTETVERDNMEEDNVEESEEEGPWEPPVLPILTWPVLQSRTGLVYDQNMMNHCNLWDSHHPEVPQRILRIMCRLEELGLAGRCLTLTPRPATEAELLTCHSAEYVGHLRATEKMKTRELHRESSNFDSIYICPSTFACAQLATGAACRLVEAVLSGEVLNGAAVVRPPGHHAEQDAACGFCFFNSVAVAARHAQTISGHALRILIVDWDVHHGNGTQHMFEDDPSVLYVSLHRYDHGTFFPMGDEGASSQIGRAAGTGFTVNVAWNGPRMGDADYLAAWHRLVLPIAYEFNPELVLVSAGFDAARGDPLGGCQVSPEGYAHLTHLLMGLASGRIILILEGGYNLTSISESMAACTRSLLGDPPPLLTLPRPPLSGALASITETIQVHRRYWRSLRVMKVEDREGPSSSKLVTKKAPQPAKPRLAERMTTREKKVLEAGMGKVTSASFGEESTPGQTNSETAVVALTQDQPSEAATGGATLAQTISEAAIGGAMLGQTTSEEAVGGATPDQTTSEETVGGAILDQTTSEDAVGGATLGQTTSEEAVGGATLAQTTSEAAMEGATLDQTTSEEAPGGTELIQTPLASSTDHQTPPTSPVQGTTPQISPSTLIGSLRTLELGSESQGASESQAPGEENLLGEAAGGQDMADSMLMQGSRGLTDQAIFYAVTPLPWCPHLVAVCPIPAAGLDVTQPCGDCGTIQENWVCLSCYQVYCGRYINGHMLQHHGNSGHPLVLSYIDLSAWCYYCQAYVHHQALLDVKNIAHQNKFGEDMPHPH
Protocol: Serial dilutions of compound were mixed with 3 nM HDAC6 enzyme and substrate peptide in assay buffer. Progress curves were acquired without preincubation for ∼5 h on a Labchip3000 instrument. Progress curves in the presence of compound were fit with the following equation: ((A + (Vs × x)) + (((Vo – Vs) × (1 – exp((−1 × Kobs) × t)))/Kobs)). To determine observed rate of inhibition, Vo was locked to that in control (Vi, DMSO only). Fractional steady state velocity (Vs/Vi) and Kobs values were plotted against [compound] to determine Ki and residence time.

T1 sequence (Q13547 whole entry): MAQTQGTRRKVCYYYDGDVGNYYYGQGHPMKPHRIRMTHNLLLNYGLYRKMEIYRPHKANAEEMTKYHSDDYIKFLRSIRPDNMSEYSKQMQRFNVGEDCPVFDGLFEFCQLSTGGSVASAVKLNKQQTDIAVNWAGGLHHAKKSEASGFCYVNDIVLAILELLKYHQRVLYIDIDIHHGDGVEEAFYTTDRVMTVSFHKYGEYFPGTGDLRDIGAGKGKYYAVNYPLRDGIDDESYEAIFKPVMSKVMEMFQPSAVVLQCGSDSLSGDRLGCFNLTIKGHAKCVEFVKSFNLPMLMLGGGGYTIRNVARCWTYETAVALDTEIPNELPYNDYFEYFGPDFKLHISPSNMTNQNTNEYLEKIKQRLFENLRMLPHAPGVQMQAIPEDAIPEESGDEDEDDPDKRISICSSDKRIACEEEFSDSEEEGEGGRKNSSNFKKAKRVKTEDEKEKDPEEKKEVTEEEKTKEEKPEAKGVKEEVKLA

Question: Which IC50 [1] does the source give for `O=C(NO)c1ccc(CN(C2CC2)S(=O)(=O)c2cc(F)c(F)c(F)c2F)cc1` [Compound 14, 4-(((N-Cyclopropyl-2,3,4,5-tetrafluorophenyl)sulfonamido)methyl)-N-hydroxybenzamide] here?
Answer: > 1 µM

Question: What about the IC50 [2] of the same compound?
Answer: > 1 µM

Question: What about the IC50 [3] of the same compound?
Answer: > 1 µM

Question: And the IC50 [4]?
Answer: > 1 µM

Question: What about the IC50 [5] of the same compound?
Answer: > 1 µM

Question: And the “reactivity with glutathione” value [6]?
Answer: no discernible reactivity with GSH; also recorded: no discernible SNAr reaction with GSH

Question: And the “PAMPA -Log Pe” value ([7]; listed as 14 (KT-531))?
Answer: 5.44 ± 0.06

Question: And the “PAMPA -Log Pe” value ([7]; listed as KT-531)?
Answer: 5.44

Question: What about the Ki [8] of the same compound?
Answer: 0.0173 µM
